Source: patent US12521393B2, “Cytotoxicity targeting chimeras for CCR2-expressing cells” (GLAXOSMITHKLINE INTELLECTUAL PROPERTY DEVELOPMENT LIMITED, priority 2021, dated 2026)

What was measured:
[1] = tested on: endogenous target monocytes in human PBMC; experiment: PBMC ex vivo monocyte depletion flow cytometry assay (Example 200); assay type: cell-based; settings: with anti-cotinine antibody (SEQ ID NO: 11/12), 18-24 hours, EC50 in molar, read-out: Ex Vivo Depletion Assay pEC50 (converted)
Outline: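 Monocyte depletion is reported as pEC50, averaged or given individually across runs, and read by flow cytometry staining CD45, CD14 and CD4 with a viability dye. Compounds, diluted four-fold over 11 points from 1 mM DMSO stocks, were combined with 30 μg/mL Fc-enhanced anti-cotinine antibody and human PBMC, then incubated 18-24 h at 37° C.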

[2] = tested on: CCR2 expressing cells (CD11b+Ly6c+Hi) in peripheral blood; experiment: In vivo depletion assay, flow cytometry of peripheral blood (Example 201); design: species or system human CCR2 knock-in mice (C57 background); settings: hCCR2 knock-in mice, IV 0.1 mpk compound + 10 mpk anti-cotinine antibody (SEQ ID NO: 13/14), peripheral blood at 48 hr
Description: Stock solution preparation. Stock solutions of compounds of Formula (I) were prepared at 20 mg/mL and 100 mg/mL in […] for PK/PD and dose tolerability studies respectively. Stock solutions were stored at […] until further usage. on the day of experiment, the stock Solution of the compound of Formula (I) was removed from storage at […] and thawed at room temperature. Anti-cotinine antibody having a heavy chain sequence of SEC ID NO: 13 and a light chain sequence of SEQ ID NO: 14 (rabbit variable region sequence with mouse IgG2a Fc domain), if required was removed from storage at −80° C. and thawed at room temperature. Antibody vials were immediately transferred into wet ice after thawing. Compounds of Formula (I) were further diluted in DMSO as per experimental requirements.
The formulation composition was Saline: DMSI: PBS.
Saline was added based on the quantity required and then stock solution of the compound of Formula (I) prepared in DMSO, followed by addition of antibody in PBS. Formulations were incubated at room temperature for 30 minutes before administration to the mouse. DMSO was used at 1 to % (v/v) in the final formulation.
After bleeding, each mouse was sacrificed by cervical dislocation. […] Flow Cytometry Analysis:
CCR2 depletion in peripheral blood was determined by flow cytometry. Briefly, peripheral blood was collected from all animals at the end of study termination and processed. Blood samples were lysed using 1×RBC Lysis buffer and the resulting cell pellet was washed twice in FACS buffer (HBSS containing 5% FBS). Cells were subjected to Fc blocking using mouse Fc block from Biolegend (Trustain, anti-mouse CD16/32, Cat: 101319) to block non-specific binding followed by surface staining for immune markers (CD45, CD3, CD11 b, Ly6C, human CCR2). Surface staining was done for 30 minutes in ice and cells were washed twice to remove unbound antibodies. Cells were stained with 7AAD to determine viability and acquired on BD FACSVerse flow cytometer. Appropriate FMO controls and single-color controls were included in the experiment for gating and compensation respectively.
Percent depletion of CD11 b+Ly6c+Hi cells and CCR2 expression for the different treatment groups was determined.

| Structure (SMILES) | EC50 [1] [nM] | % Depletion of CCR2 expressing cells [2] [%] |
| --- | --- | --- |
| CC(C)N(C)[C@@H]1CC[C@H](N2CC[C@H](Nc3ncnc4ccc(C(F)(F)F)cc34)C2=O)[C@H](NC(=O)[C@H]2CC[C@H](N3CCN(C(=O)CCCCCCCCNC(=O)[C@H]4CC(=O)N(C)[C@@H]4c4cccnc4)CC3)CC2)C1 [Example 155, (2S,3S)-N-(9-(4-((1R,4r)-4-(((1R,2S,5R)-5-(Isopropyl(methyl)amino)-2-((S)-2-oxo-3-((6-(trifluoromethyl)quinazolin-4-yl)amino)pyrrolidin-1-yl)cyclohexyl)carbamoyl)cyclohexyl)piperazin-1-yl)-9-oxononyl)-1-methyl-5-oxo-2-(pyridin-3-yl)pyrrolidine-3-carboxamide] | 0.251 | 70 |
| CN1C(=O)C[C@H](C(=O)NCCOCC(=O)NCCOCC(=O)N[C@H]2CC[C@@H](C(=O)N[C@@H]3C[C@H](NC(C)(C)C)CC[C@@H]3N3CC[C@H](Nc4ncnc5ccc(C(F)(F)F)cc45)C3=O)CC2)[C@H]1c1cccnc1 [Example 100, (2S,3S)-N-(2-(2-((2-(2-(((1S,4s)-4-(((1R,2S,5R)-5-(tert-Butylamino)-2-((S)-2-oxo-3-((6-(trifluoromethyl)quinazolin-4-yl)amino)pyrrolidin-1-yl)cyclohexyl)carbamoyl)cyclohexyl)amino)-2-oxoethoxy)ethyl)amino)-2-oxoethoxy)ethyl)-1-methyl-5-oxo-2-(pyridin-3-yl)pyrrolidine-3-carboxamide] | 1.26 | 74 |
| CC(C)N(C)[C@@H]1CC[C@H](N2CC[C@H](Nc3ncnc4ccc(C(F)(F)F)cc34)C2=O)[C@H](NC(=O)[C@H]2CC[C@@H](NC(=O)COCCOCCNC(=O)CCNC(=O)[C@H]3CC(=O)N(C)[C@@H]3c3cccnc3)CC2)C1 [Example 82, (2S,3S)-N-(3-((2-(2-(2-(((1S,4s)-4-(((1R,2S,5R)-5-(Isopropyl(methyl)amino)-2-((S)-2-oxo-3-((6-(trifluoromethyl)quinazolin-4-yl)amino)pyrrolidin-1-yl)cyclohexyl)carbamoyl)cyclohexyl)amino)-2-oxoethoxy)ethoxy)ethyl)amino)-3-oxopropyl)-1-methyl-5-oxo-2-(pyridin-3-yl)pyrrolidine-3-carboxamide] | 0.501 | 94 |
| CC(C)N(C)[C@@H]1CC[C@H](N2CC[C@H](Nc3ncnc4ccc(C(F)(F)F)cc34)C2=O)[C@H](NC(=O)CCc2ccc(C3CCN(C(=O)CCCCCNC(=O)[C@H]4CC(=O)N(C)[C@@H]4c4cccnc4)CC3)cc2)C1 [Example 86, (2S,3S)-N-(6-(4-(4-(3-(((1R,2S,5R)-5-(Isopropyl(methyl)amino)-2-((S)-2-oxo-3-((6-(trifluoromethyl)quinazolin-4-yl)amino)pyrrolidin-1-yl)cyclohexyl)amino)-3-oxopropyl)phenyl)piperidin-1-yl)-6-oxohexyl)-1-methyl-5-oxo-2-(pyridin-3-yl)pyrrolidine-3-carboxamide] | 0.158 | 25.67 |
| CC(C)N(C)[C@@H]1CC[C@H](N2CC[C@H](Nc3ncnc4ccc(C(F)(F)F)cc34)C2=O)[C@H](NC(=O)C2CCN(c3cnc(NCCOCCOCCNC(=O)[C@H]4CC(=O)N(C)[C@@H]4c4cccnc4)cn3)CC2)C1 [Example 162, N-((1R,2S,5R)-5-(Isopropyl(methyl)amino)-2-((S)-2-oxo-3-((6-(trifluoromethyl)quinazolin-4-yl)amino)pyrrolidin-1-yl)cyclohexyl)-1-(5-((2-(2-(2-((2S,3S)-1-methyl-5-oxo-2-(pyridin-3-yl)pyrrolidine-3-carboxamido)ethoxy)ethoxy)ethyl)amino)pyrazin-2-yl)piperidine-4-carboxamide] | 1.58 | 66 |
| CC(C)N(C)[C@@H]1CC[C@H](N2CC[C@H](Nc3ncnc4ccc(C(F)(F)F)cc34)C2=O)[C@H](NC(=O)C2CCN(CCOCCOCCOCCOCCNC(=O)[C@H]3CC(=O)N(C)[C@@H]3c3cccnc3)CC2)C1 [Example 147] | 0.631 | 77 |
| CC(C)N(C)[C@@H]1CC[C@H](N2CC[C@H](Nc3ncnc4ccc(C(F)(F)F)cc34)C2=O)[C@H](NC(=O)[C@H]2CC[C@@H](C(=O)NCCCN3CCN(CCCNC(=O)[C@H]4CC(=O)N(C)[C@@H]4c4cccnc4)CC3)CC2)C1 [Example 150, (1 s,4S)-N^1-((1R,2S,5R)-5-(Isopropyl(methyl)amino)-2-((S)-2-oxo-3-((6-(trifluoromethyl)quinazolin-4-yl)amino)pyrrolidin-1-yl)cyclohexyl)-N^4-(3-(4-(3-((2S,3S)-1-methyl-5-oxo-2-(pyridin-3-yl)pyrrolidine-3-carboxamido)propyl)piperazin-1-yl)propyl)cyclohexane-1,4-dicarboxamide] | 1 | 85.52 |
| CC(C)N(C)[C@@H]1CC[C@H](N2CC[C@H](Nc3ncnc4ccc(C(F)(F)F)cc34)C2=O)[C@H](NC(=O)C[C@H]2CC[C@H](NC(=O)CCOCCOCCOCCNC(=O)[C@H]3CC(=O)N(C)[C@@H]3c3cccnc3)CC2)C1 [Example 33, (2S,3S)-N-(2-(2-(2-(3-(((1R,4r)-4-(2-(((1R,2S,5R)-5-(Isopropyl(methyl)amino)-2-((S)-2-oxo-3-((6-(trifluoromethyl)quinazolin-4-yl)amino)pyrrolidin-1-yl)cyclohexyl)amino)-2-oxoethyl)cyclohexyl)amino)-3-oxopropoxy)ethoxy)ethoxy)ethyl)-1-methyl-5-oxo-2-(pyridin-3-yl)pyrrolidine-3-carboxamide] | 0.316 | 89 |
| CC(C)N(C)[C@@H]1CC[C@H](N2CC[C@H](Nc3ncnc4ccc(C(F)(F)F)cc34)C2=O)[C@H](NC(=O)C2CCN(C3CCN(CCOCCOCCNC(=O)[C@H]4CC(=O)N(C)[C@@H]4c4cccnc4)CC3)CC2)C1 [Example 90, N-((1R,2S,5R)-5-(Isopropyl(methyl)amino)-2-((S)-2-oxo-3-((6-(trifluoromethyl)quinazolin-4-yl)amino)pyrrolidin-1-yl)cyclohexyl)-1′-(2-(2-(2-((2S,3S)-1-methyl-5-oxo-2-(pyridin-3-yl)pyrrolidine-3-carboxamido)ethoxy)ethoxy)ethyl)-[1,4′-bipiperidine]-4-carboxamide] | 1.58 | 87.57 |
| CN1C(=O)C[C@H](C(=O)NCCC(=O)NCCOCCOCCC(=O)N[C@H]2CC[C@@H](C(=O)N[C@@H]3C[C@H](NC(C)(C)C)CC[C@@H]3N3CC[C@H](Nc4ncnc5ccc(C(F)(F)F)cc45)C3=O)CC2)[C@H]1c1cccnc1 [Example 51, (2S,3S)-N-(3-((2-(2-(3-(((1S,4s)-4-(((1R,2S,5R)-5-(tert-Butylamino)-2-((S)-2-oxo-3-((6-(trifluoromethyl)quinazolin-4-yl)amino)pyrrolidin-1-yl)cyclohexyl)carbamoyl)cyclohexyl)amino)-3-oxopropoxy)ethoxy)ethyl)amino)-3-oxopropyl)-1-methyl-5-oxo-2-(pyridin-3-yl)pyrrolidine-3-carboxamide] | 0.631 | 97.32 |
